Article PMC5744864, “Indole and Benzimidazole Bichalcophenes: Synthesis, DNA Binding and Antiparasitic Activity” (European Journal of Medicinal Chemistry, 2018)
Counter-ions that a name gives are not always drawn. Like-named read-outs stand apart in the source and are kept apart here.

Experiments:
[1] = tested on: T. b. rhodesiense (STIB900) infected mice; assay: STIB900 acute mouse model for T. b. r. infections; format: in vivo; settings: 4 × 5 mg/kg i.p.; for In vivo (cures), cured/infected mice: T. b. rhodesiense (STIB900) infected mice; for In vivo cure of infected mice (in words): T. b. rhodesiense infected mice
Protocol: The excellent in vitro activity and selectivity of the indole bichalcophenes diamidines (4a-d) encouraged us to test them in vivo in the rigorous T. b. r. STIB900 mouse model (Table 1) for the acute hemolymphatic stage of the African trypanosomiasis. The dosage applied was low with a daily intraperitoneal (i.p.) dose of 5 mg/kg compound for four consecutive days.
(§1) The in vitro viability assays were with the T. b. r. strain STIB 900 and the chloroquine resistant P. f. strain K1. The efficacy studies were with the STIB900 acute mouse model for T. b. r. infections. Dosage was 4 × 5 mg/kg i.p. performed as previously described in detail. Cytotoxicity was evaluated in L6 rat myoblast cells as previously reported in detail.

[2] = tested on: Poly(dA).Poly(dT); assay: Circular dichroism titration with Poly(dA).Poly(dT); format: binding; settings: 20 μM Poly(dA).Poly(dT), 10 mM MES, 100 mM NaCl, 1 mM EDTA, 25 °C
Protocol: Fig. 2 Circular dichroism spectra of the titration of representative compounds, (4a, 4d, 8a, 8b, 8c) with a 20 μM Poly(dA).Poly(dT) sequence in the buffer (10 mM MES, 100 mM NaCl, 1 mM EDTA, at pH, 7.4) at 25 °C.
CD spectra were collected employing a Jasco J-810 spectrometer at 25 °C using different ratios of compound to DNA at 25 °C in MES 10 buffer (10 mM MES, 100 mM NaCl, I mM EDTA).First, a DNA solution in a 1-cm quartz cuvette was scanned over the desired wavelength range. Tested compounds at increasing ratios, were titrated into the same cuvette and the complexes rescanned under the same conditions.

[3] = Cytotoxicity in L6 rat myoblast cells; format: cell-based; settings: cultured L6 rat myoblast cells; read-out: Cytotox. IC50 (L6)
Protocol: as §1

[4] = tested on: poly(dA-dT)n; assay: Thermal melting (ΔTm) of poly(dA-dT) DNA; format: binding; settings: ratio 0.3 mol compound per mole of DNA; CAC 10 buffer pH 7.0
Protocol: Thermal melting experiments were performed with a Cary 300 spectrophotometer. Cuvettes were mounted in a thermal block where the solution temperatures were mesaured with a thermistor in the reference cuvette. Temperatures were maintained under computer control and increased at 0.5 °C/min. The experiments were performed in 1 cm path length quartz cuvettes in CAC 10 buffer (cacodylic acid 10 mM, EDTA 1 mM, NaCl 100 mM with NaOH added to give pH = 7.0). Poly (dA-dT) DNA concentrations were determined by measuring its absorbance at 260 nm. A ratio of 0.3 mol compound per mole of DNA was used for the complex and DNA alone was used as control. ΔTm values were determined from the peak of first derivative curves (dA/dT).

[5] = tested on: T. b. r. (Trypanosoma brucei rhodesiense) STIB900; assay: In vitro viability assay, T. b. r. strain STIB900; format: cell-based; settings: for IC50: Trypanosoma brucei, read-out: T. b. r. IC50; for SI/T. b. r., Selectivity Index IC50 (L6)/IC50 (T b.r.): ratio L6 versus T. b. r. STIB900
Protocol: as §1

[6] = tested on: P. f. (Plasmodium falciparum) strain K1; assay: In vitro viability assay, chloroquine resistant P. f. strain K1; format: cell-based; settings: for IC50: Plasmodium falciparum; for SI/P.f, Selectivity Index IC50 (L6)/IC50 (P.f.): ratio L6 versus P. f. K1
Protocol: as §1

[7] = tested on: T. b. rhodesiense (STIB900) infected mice; set-up: method as in PMID 23959303; settings: 5 mg/kg i.p. daily for four consecutive days; cited from earlier work
[8] = strain STIB900, average of duplicate determinations

SMILES	melting point [°C]	Induced CD signal on binding (minor groove binding) [2]	IC50 [3] [nM]	ΔTm, thermal melting increase of poly(dA-dT)n [4]	SI/T. b. r., Selectivity Index IC50 (L6)/IC50 (T b.r.) [5]	further results
N=C(N)c1ccc2nc(-c3ccc(-c4ccc(C(=N)N)s4)o3)[nH]c2c1 (as salt: hydrochloride) [Compound 8b, 2-(5-(5-Amidinothiophen-2-yl)furan-2-yl)-1H-benzimidazole-5(6)-amidine hydrochloride salt]	> 300					
N=C(N)c1ccc2cc(-c3ccc(-c4ccc(C(=N)N)o4)o3)[nH]c2c1 (as salt: hydrochloride) [Compound 4a, 2-(5′-Amidino-2,2′-bifuran-5-yl)-1H-indole-6-amidine hydrochloride salt]	> 300					
N=C(N)c1ccc2cc(-c3ccc(-c4ccc(C(=N)N)o4)o3)[nH]c2c1 [Compound 4a, 2-(5′-Amidino-2,2′-bifuran-5-yl)-1H-indole-6-amidine hydrochloride salt]		very strong induced CD signals	16500	28 ^oC	1100	In vivo (cures), cured/infected mice [1]: 0/4; IC50 [5]: 15 nM; IC50 ([6]; K1, read-out: P.f. IC50): 2.9 nM
N=C(N)c1ccc2cc(-c3ccc(-c4ccc(C(=N)N)s4)o3)[nH]c2c1 [Compound 4b, 2-(5-(5-Amidinothiophen-2-yl)furan-2-yl)-1H-indole-6-amidine hydrochloride salt]			15700	>30 ^oC	1046	In vivo (cures), cured/infected mice [1]: 0/4; IC50 [5]: 15 nM; IC50 ([6]; K1, read-out: P.f. IC50): 7.3 nM; SI/P.f, Selectivity Index IC50 (L6)/IC50 (P.f.) [6]: 2150
N=C(N)c1ccc2nc(-c3ccc(-c4ccc(C(=N)N)o4)o3)[nH]c2c1 [Compound 8a, 2-(5′-Amidino-2,2′-bifuran-5-yl)-1H-benzimidazole-5(6)-amidine hydrochloride salt]		very strong induced CD signals	41800	29 ^oC	409	IC50 [5, 8]: 102 nM; IC50 ([6]; chloroquine resistant strain K1, average of duplicate determinations, read-out: P.f. IC50): 91.9 nM; SI/P.f, Selectivity Index IC50 (L6)/IC50 (P.f.) [6]: 454
N=C(N)c1ccc(OCCCCCOc2ccc(C(=N)N)cc2)cc1 [pentamidine, Pentamidine]						In vivo (cures), cured/infected mice [7]: 1/4
N=C(N)c1ccc2nc(-c3ccc(-c4ccc(C(=N)N)s4)o3)[nH]c2c1 [Compound 8b, 2-(5-(5-Amidinothiophen-2-yl)furan-2-yl)-1H-benzimidazole-5(6)-amidine hydrochloride salt]		very strong induced CD signals	15000	27 ^oC	234	IC50 [5, 8]: 64 nM
N=C(N)c1ccc2cc(-c3ccc(-c4ccc(C(=N)N)o4)s3)[nH]c2c1 [Compound 4c, 2-(5-(5-Amidinofuran-2-yl)thiophen-2-yl)-1H-indole-6-amidine hydrochloride salt]			17600	28 ^oC	4400	Sterile cures in mice infected with T. b. r. ([1]; STIB900 mouse model): 100%; In vivo (cures), cured/infected mice [1]: 4/4; In vivo cure of infected mice (in words) [1]: curing all T. b. r. infected mice; IC50 [5]: 4 nM; IC50 ([6]; K1, read-out: P.f. IC50): 6.8 nM; SI/P.f, Selectivity Index IC50 (L6)/IC50 (P.f.) [6]: 2588
N=C(N)c1ccc2nc(-c3ccc(-c4ccc(C(=N)N)s4)s3)[nH]c2c1 [Compound 8c, 2-(5′-Amidino-2,2′-bithiophen-5-yl)-1H-benzimidazole-5(6)-amidine hydrochloride salt]		very strong induced CD signals	26200	>30 ^oC	1048	IC50 [5, 8]: 25 nM
N#Cc1ccc2nc(-c3ccc(-c4ccc(C#N)s4)s3)[nH]c2c1 [Compound 7c, 2-(5′-Cyano-2,2′-bithiophen-5-yl)-1H-benzimidazole-5(6)-carbonitrile]	> 300					In vivo cure of infected mice (in words) [1]: cured all mice
N=C(N)c1ccc2cc(-c3ccc(-c4ccc(C(=N)N)s4)s3)[nH]c2c1 [Compound 4d, 2-(5′-Amidino-2,2′-bithiophen-5-yl)-1H-indole-6-amidine hydrochloride salt]		very strong induced CD signals	11600	>30 ^oC	5800	In vivo (cures), cured/infected mice [1]: 0/4; IC50 [5]: 2 nM; IC50 ([6]; K1, read-out: P.f. IC50): 6.8 nM; SI/P.f, Selectivity Index IC50 (L6)/IC50 (P.f.) [6]: 1705
N=C(N)c1ccc2cc(-c3ccc(-c4ccc(C(=N)N)s4)o3)[nH]c2c1 (as salt: hydrochloride) [Compound 4b, 2-(5-(5-Amidinothiophen-2-yl)furan-2-yl)-1H-indole-6-amidine hydrochloride salt]	> 300					
N=C(N)c1ccc2cc(-c3ccc(-c4ccc(C(=N)N)o4)s3)[nH]c2c1 (as salt: hydrochloride) [Compound 4c, 2-(5-(5-Amidinofuran-2-yl)thiophen-2-yl)-1H-indole-6-amidine hydrochloride salt]	> 300					
N=C(N)c1ccc2cc(-c3ccc(-c4ccc(C(=N)N)s4)s3)[nH]c2c1 (as salt: hydrochloride) [Compound 4d, 2-(5′-Amidino-2,2′-bithiophen-5-yl)-1H-indole-6-amidine hydrochloride salt]	> 300					
N=C(N)c1ccc2nc(-c3ccc(-c4ccc(C(=N)N)o4)o3)[nH]c2c1 (as salt: hydrochloride) [Compound 8a, 2-(5′-Amidino-2,2′-bifuran-5-yl)-1H-benzimidazole-5(6)-amidine hydrochloride salt]	> 300					
N=C(N)c1ccc2nc(-c3ccc(-c4ccc(C(=N)N)s4)s3)[nH]c2c1 (as salt: hydrochloride) [Compound 8c, 2-(5′-Amidino-2,2′-bithiophen-5-yl)-1H-benzimidazole-5(6)-amidine hydrochloride salt]	> 300					
